Experimental findings from ChEMBL document CHEMBL5223077, “Recent advances on synthesis and biological activities of aurones” (Bioorg Med Chem, 2021) are described below.

Test [1] is described as follows: Inhibition of CDK5/p25 (unknown origin). Also on record: species or system Homo sapiens.
The test system of a further test is HL-60. Put plainly: Antiproliferative activity against human HL-60 cells assessed as cell growth inhibition. It counts as functional, cell-based.
The next test deals with HT-29. Put plainly: Antiproliferative activity against human HT-29 cells assessed as cell growth inhibition. It counts as functional, cell-based.
The subject of test [2] is Plasmodium falciparum. Put plainly: Antiplasmodial activity against Plasmodium falciparum 3D7. It is filed as functional, organism-based.
Test [3] concerns Mycobacterium tuberculosis. In words: Antimycobacterial activity against Mycobacterium tuberculosis. It counts as functional.
Test [4] in a line: Antioxidant activity assessed as DPPH radical scavenging activity. It counts as functional. On the technique in general: The DPPH test is a chemical assay of radical scavenging.
The target of test [5] is T1, Nitric oxide synthase, inducible (Mus musculus, UniProt P29477).
T1 sequence (P29477 whole entry): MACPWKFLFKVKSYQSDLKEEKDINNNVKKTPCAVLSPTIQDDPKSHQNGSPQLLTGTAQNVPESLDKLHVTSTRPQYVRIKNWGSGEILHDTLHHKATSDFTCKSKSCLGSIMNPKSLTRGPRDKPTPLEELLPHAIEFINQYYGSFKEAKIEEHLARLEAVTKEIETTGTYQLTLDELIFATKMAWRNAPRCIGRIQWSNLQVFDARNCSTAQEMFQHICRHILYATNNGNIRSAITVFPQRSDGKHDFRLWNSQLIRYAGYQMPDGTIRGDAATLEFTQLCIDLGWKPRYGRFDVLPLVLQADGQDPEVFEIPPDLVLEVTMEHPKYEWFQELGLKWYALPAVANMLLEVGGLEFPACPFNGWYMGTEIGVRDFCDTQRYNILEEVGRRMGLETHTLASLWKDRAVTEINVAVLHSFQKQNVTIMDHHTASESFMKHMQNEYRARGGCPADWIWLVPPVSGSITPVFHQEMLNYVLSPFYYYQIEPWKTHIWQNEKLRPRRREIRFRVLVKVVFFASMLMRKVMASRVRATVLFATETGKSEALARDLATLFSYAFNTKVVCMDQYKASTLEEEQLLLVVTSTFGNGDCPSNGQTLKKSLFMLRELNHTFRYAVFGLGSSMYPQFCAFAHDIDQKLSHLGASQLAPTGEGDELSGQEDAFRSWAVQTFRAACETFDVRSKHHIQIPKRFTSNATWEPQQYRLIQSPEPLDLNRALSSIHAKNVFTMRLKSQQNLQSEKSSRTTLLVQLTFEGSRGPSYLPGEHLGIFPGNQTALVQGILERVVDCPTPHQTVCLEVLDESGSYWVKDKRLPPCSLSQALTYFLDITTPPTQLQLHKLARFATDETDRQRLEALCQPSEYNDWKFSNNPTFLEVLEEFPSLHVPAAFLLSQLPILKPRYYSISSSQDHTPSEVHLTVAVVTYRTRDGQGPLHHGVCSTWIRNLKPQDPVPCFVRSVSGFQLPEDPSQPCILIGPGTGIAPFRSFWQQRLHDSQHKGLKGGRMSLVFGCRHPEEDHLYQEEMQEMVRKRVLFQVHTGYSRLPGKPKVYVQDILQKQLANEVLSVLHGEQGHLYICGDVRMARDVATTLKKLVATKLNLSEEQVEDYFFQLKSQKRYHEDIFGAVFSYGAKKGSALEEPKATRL
Put plainly: Inhibition of iNOS expression in LPS-induced mouse RAW264.7 cells. It is filed as cell-based.

The test system of a further test is MES-SA. In words: Antiproliferative activity against human MES-SA cells assessed as cell growth inhibition. It counts as functional, cell-based.
A further test relates to MES-SA/Dx5. Put plainly: Antiproliferative activity against human MES-SA/Dx5 cells assessed as cell growth inhibition. It counts as functional, cell-based.
Another test concerns the target Tubulin. Put plainly: Inhibition of tubulin (unknown origin). It is filed as protein-complex assay, Homo sapiens.
A further test deals with K562. In words: Antiproliferative activity against human K562 cells assessed as cell growth inhibition at 10 uM relative to control. It counts as functional, cell-based.
A further test relates to MDA-MB-435. In words: Antiproliferative activity against human MDA-MB-435 cells assessed as cell growth inhibition at 10 uM relative to control. It is filed as functional, cell-based.
For the next test, the system named is Bacillus subtilis. Put plainly: Antimicrobial activity against Bacillus subtilis assessed as inhibition of bacterial growth. It counts as functional.
The next test relates to Staphylococcus aureus. Put plainly: Antimicrobial activity against Staphylococcus aureus assessed as inhibition of bacterial growth. It is filed as functional.
Test [6] relates to Mycolicibacterium smegmatis. In words: Anti-mycobacterial activity against Mycobacterium smegmatis assessed as inhibition of bacterial growth. It counts as functional.
Another test relates to Fusarium oxysporum. In words: Antifungal activity against Fusarium oxysporum assessed as inhibition of fungal growth. It is filed as functional.
The nature of test [7]: Antioxidant activity assessed as DPPH radical scavenging activity relative to control. It counts as functional. Details: concentration or dose not given beside the values.
Test [8] has as its system Plasmodium falciparum. In words: Antiplasmodial activity against Plasmodium falciparum D6. It is filed as functional, organism-based.
The test system of test [9] is Plasmodium falciparum. In words: Antiplasmodial activity against Plasmodium falciparum W2. It is filed as functional, organism-based.
Test [10] in a line: Antioxidant activity assessed as ABTS radical scavenging activity. It counts as functional.
The next test relates to Candida albicans. Put plainly: Antifungal activity against Candida albicans assessed as inhibition of fungal growth. It is filed as functional.
Another test concerns the target Maltase-glucoamylase (Homo sapiens, UniProt O43451). Put plainly: Inhibition of alpha-glucosidase (unknown origin).

Values after ≈ are worked out from the molar mass of the structure shown.

Maltase-glucoamylase, sequence (O43451 whole entry): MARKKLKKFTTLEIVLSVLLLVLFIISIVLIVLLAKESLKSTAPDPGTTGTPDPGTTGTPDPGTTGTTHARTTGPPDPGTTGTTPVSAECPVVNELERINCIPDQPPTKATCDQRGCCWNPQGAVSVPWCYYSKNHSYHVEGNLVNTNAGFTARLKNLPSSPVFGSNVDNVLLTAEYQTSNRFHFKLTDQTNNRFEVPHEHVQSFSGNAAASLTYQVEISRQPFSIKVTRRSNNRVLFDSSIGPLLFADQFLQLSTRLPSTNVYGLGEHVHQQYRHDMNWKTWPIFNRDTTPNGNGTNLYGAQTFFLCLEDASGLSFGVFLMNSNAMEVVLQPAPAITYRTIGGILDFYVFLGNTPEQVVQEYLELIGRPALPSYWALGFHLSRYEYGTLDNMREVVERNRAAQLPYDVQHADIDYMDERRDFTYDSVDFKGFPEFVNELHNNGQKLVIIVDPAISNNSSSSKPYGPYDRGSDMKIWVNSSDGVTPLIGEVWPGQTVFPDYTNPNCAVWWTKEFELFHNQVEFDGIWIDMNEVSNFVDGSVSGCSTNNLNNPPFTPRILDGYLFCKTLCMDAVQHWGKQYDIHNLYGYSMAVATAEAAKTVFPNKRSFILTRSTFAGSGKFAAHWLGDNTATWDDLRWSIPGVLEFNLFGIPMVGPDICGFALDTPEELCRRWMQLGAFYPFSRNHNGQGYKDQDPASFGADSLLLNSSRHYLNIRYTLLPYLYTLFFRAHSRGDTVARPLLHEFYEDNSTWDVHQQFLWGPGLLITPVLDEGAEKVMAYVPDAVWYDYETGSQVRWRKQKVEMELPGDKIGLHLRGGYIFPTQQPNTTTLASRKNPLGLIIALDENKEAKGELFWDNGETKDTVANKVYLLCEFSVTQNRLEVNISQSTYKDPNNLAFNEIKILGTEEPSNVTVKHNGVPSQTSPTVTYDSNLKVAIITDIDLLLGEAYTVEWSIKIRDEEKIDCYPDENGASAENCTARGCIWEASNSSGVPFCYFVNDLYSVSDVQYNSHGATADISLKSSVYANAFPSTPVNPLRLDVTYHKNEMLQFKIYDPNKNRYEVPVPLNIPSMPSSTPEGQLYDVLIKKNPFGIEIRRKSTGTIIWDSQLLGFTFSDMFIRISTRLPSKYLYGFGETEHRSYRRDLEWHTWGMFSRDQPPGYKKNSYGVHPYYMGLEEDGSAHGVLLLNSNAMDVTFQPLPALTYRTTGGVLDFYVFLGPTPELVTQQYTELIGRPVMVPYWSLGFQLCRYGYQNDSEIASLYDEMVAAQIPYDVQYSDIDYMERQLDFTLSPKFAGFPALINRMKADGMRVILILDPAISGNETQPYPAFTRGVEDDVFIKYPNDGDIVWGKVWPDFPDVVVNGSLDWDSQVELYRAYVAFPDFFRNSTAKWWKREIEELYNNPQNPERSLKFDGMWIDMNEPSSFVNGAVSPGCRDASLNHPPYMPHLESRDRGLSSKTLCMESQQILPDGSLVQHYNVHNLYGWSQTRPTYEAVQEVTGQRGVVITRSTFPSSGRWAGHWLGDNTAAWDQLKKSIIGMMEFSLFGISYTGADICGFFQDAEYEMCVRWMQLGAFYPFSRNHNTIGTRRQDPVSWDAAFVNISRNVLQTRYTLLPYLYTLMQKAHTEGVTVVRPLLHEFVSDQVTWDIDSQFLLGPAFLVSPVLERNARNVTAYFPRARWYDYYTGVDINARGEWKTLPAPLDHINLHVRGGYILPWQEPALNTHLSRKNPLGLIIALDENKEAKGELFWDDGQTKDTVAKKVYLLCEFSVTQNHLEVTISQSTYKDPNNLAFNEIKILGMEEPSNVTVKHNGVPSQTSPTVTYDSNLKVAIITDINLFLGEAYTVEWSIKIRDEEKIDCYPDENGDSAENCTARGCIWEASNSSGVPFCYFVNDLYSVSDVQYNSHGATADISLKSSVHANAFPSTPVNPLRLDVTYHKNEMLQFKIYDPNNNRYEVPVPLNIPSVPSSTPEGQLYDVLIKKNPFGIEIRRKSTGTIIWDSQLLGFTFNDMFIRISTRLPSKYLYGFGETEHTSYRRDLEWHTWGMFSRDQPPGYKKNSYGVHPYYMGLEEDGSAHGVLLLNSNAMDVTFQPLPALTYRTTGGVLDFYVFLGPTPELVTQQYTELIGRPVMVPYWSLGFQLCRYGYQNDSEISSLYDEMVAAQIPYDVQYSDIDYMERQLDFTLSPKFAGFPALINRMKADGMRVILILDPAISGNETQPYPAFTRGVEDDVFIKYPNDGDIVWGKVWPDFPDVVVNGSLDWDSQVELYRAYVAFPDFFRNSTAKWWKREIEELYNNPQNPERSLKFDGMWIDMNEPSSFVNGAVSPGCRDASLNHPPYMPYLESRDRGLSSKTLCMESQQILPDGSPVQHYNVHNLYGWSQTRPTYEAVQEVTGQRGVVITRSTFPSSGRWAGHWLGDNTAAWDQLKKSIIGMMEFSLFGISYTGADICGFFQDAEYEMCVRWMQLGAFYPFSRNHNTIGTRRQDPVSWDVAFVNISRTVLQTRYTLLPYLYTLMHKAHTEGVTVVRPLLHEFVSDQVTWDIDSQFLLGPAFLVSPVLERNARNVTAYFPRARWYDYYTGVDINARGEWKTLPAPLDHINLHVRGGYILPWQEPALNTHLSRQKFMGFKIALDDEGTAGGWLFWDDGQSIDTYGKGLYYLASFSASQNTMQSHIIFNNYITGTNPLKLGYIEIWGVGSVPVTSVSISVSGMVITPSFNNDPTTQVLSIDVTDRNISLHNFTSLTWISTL

The term IC50 denotes the concentration that gives 50% inhibition. In [1], `O=C1/C(=C/c2ccc(O)c(O)c2)Oc2cc(O)cc(O)c21` [AUREUSIDIN] came in with an IC50 of 4.81 µM.
As to `CCCCCCCOc1ccc2c(c1)O/C(=C\c1ccc(C(F)(F)F)cc1)C2=O`, the IC50 in the test with HL-60 worked out at 2.67 µM; in the test on HT-29 it was 4.32 µM.
As for `CCCOc1c(Br)cc(/C=C2\Oc3cc(OC)cc(OC)c3C2=O)cc1OC`, in the test with Plasmodium falciparum [2], the midpoint of inhibition, the IC50, lay at 2.3 µM.
The MIC99 is the lowest concentration that inhibits either 99% of growth or 99% of the strains tested, depending on the study. Turning to `CC(=O)N1/C(=C\c2ccc(Br)cc2)C(=O)c2ccccc21`, the MIC99 in test [3] amounted to 0.37 µM (≈ 0.127 µg/mL).
For `COc1ccc2c(c1)O/C(=C\c1cc(O)ccc1O)C2=O`, the IC50 in test [4] was found to be 35.9 µM.
Regarding `O=C1/C(=C/c2ccc(C(F)(F)F)cc2)Oc2cc(OCc3ccccc3)ccc21`, the IC50 in the test with HL-60 was 3.46 µM; with HT-29, 4.12 µM.
Take `COc1cc(/C=C2\Oc3c(ccc4c3CCC(C)(C)O4)C2=O)ccc1O`: in test [5], the IC50 came out at 5.22 µM.
For `CCCCc1ccc(/C=C2\Nc3cc(OC)cc(OC)c3C2=O)cc1`, the 50% inhibitory concentration (IC50) in the test with MES-SA came to 17.8 µM; in the test with MES-SA/Dx5, 3.7 µM.
For `COc1cc2c(c(OC)c1)C(=O)/C(=C/c1c(C)c(C)cc(C)c1C)N2`, in that order: 9.2 µM and 19.5 µM.
Take `CCn1cc(/C=C2\Oc3cc(OCC#N)cc(O)c3C2=O)c2cc(OC)ccc21`: at Tubulin, the IC50 is 58.6 µM.
As for `O=C1/C(=C/c2ccc(C(F)(F)F)cc2)Oc2cc(O)ccc21`, the IC50 was 1.54 µM in the test on HL-60 and 8.9 µM in the test on HT-29.
Take `COc1cc(/C=C2\Oc3cc4occc4c(OC)c3C2=O)ccc1OCC(=O)Nc1ccccc1`: the inhibition of growth at 10 µM in the test with K562 (dose 10 µM, read-out: GI) worked out at 70.3%; with MDA-MB-435 (dose 10 µM, read-out: GI) it was 79.6%. Further, in the test with MDA-MB-435, the IC50 came to 7.05 µM.
A word on the MIC: it is the lowest concentration found to suppress growth. `O=C1/C(=C/c2cc3ccccc3nc2Cl)Oc2cc(O)cc(O)c21`: the MIC is 20 µg/mL (≈ 58.9 µM) in the test with Bacillus subtilis, 1250 µg/mL (≈ 3680 µM) in the test on Staphylococcus aureus, 625 µg/mL (≈ 1840 µM) in [6] and 625 µg/mL (≈ 1840 µM) with Fusarium oxysporum.
On to `O=C1/C(=C/c2ccc(Cl)cc2)Oc2ccccc21`, for which, in test [4], the IC50 was found to be 92 µM.
With `COc1cc(/C=C2\Oc3c(ccc(OC)c3OC)C2=O)ccc1O`, the Activity in test [7] stood at 32.8%.
As to `COc1cc(OC)c2c(c1)O/C(=C\c1ccc(OC)c(OC)c1)C2=O` [4,6,3',4'-TETRAMETHOXYAURONE], the IC50 with Plasmodium falciparum [2] is 7.82 µM; in the test with Plasmodium falciparum [8] it was 13.9 µM; in the test with Plasmodium falciparum [9], 13.9 µM.
Regarding `CC1(C)CCc2c(ccc3c2O/C(=C\c2ccccc2)C3=O)O1`, the IC50 in test [5] was 12.2 µM.
On to `COc1cc2c(c(OC)c1)C(=O)/C(=C/c1ccc(C(C)C)cc1)N2`, for which the IC50 in the test on MES-SA stood at 17.1 µM; in the test on MES-SA/Dx5, 5.8 µM.
As to `COc1cc(OC)c(C2=CCN(Cc3ccccc3)CC2)c2c1C(=O)/C(=C/c1ccc(F)cc1)O2`, the IC50 in test [10] stood at 71.7 µM.
`CC1(C)CCc2c(ccc3c2O/C(=C\c2ccc(O)c(O)c2)C3=O)O1` had an IC50 in test [5] of 8.09 µM.
Take `CCOc1ccc2c(c1)O/C(=C\c1ccc(C(F)(F)F)cc1)C2=O`: the IC50 in the test on HL-60 came out at 1.65 µM; in the test with HT-29 it was 9.12 µM.
As for `CC(=O)N1/C(=C\c2ccc(-c3cncc4ccccc34)cc2)C(=O)c2ccccc21`, the MIC99 in [3] worked out at 0.74 µM (≈ 0.289 µg/mL).
As for `CC1(C)CCc2c(ccc3c2O/C(=C\c2cccc(O)c2)C3=O)O1`, half-maximal inhibition in test [5] (IC50) required 10.8 µM.
For `COc1cc(OC)c2c(c1)O/C(=C\c1ccccc1)C2=O`, the IC50 in the test on Plasmodium falciparum [8] and with Plasmodium falciparum [9] was 16.9 µM in each case.
`C=CCOc1ccc2c(c1)O/C(=C\c1ccc(C(F)(F)F)cc1)C2=O`: the figures for the IC50 in the test on HL-60 and in the test with HT-29 were 3.53 µM and 4.12 µM, respectively.
`C#Cc1cccc(Nc2ncnc3cc(OCCOC)c(OCCOC)cc23)c1` [ERLOTINIB]: the IC50 in the test with K562 was determined as 3.29 µM; in the test with MDA-MB-435, 7.05 µM.
In the case of `CC1(C)CCc2c(ccc3c2O/C(=C\c2ccccn2)C3=O)O1`, the IC50 in test [5] worked out at 8.41 µM.
With `COc1ccc2c(c1OC)O/C(=C\c1ccc(O)c(O)c1)C2=O`, in test [7], the Activity was 85.8%.
On to `O=C1c2ccccc2OC1(O)Cc1ccc(Cl)cc1` (centres undefined), for which the IC50 in test [4] was 54 µM.
For `O=C1/C(=C/c2cc3cc(Br)ccc3nc2Cl)Oc2cc(O)cc(O)c21`, the MIC with Bacillus subtilis amounted to 313 µg/mL (≈ 748 µM); with Staphylococcus aureus it was 1250 µg/mL (≈ 2990 µM); in the test on Candida albicans, 78 µg/mL (≈ 186 µM).
Turning to `COc1ccc2c(c1)O/C(=C\c1ccc(C(F)(F)F)cc1)C2=O`, the values for the IC50 in the test on HL-60 and in the test on HT-29 were 2.59 µM and 5.9 µM, respectively.
In the case of `COc1cc(OC)c(C2=CCN(Cc3ccccc3)CC2)c2c1C(=O)/C(=C/c1ccc(Br)cc1)O2`, the 50% inhibitory concentration (IC50) in test [10] is 87 µM.
With `Cc1ccc2cc(/C=C3\Oc4cc(O)cc(O)c4C3=O)c(Cl)nc2c1C`, the MIC in the test with Bacillus subtilis stood at 625 µg/mL (≈ 1700 µM); with Staphylococcus aureus, 1250 µg/mL (≈ 3400 µM).
Take `COc1cc2c(c(OC)c1)C(=O)/C(=C/c1ccc(C(C)(C)C)cc1)N2`: the IC50 came out at 11.9 µM in the test with MES-SA and 3.4 µM in the test with MES-SA/Dx5.
`Cc1cc(C)c2cc(/C=C3\Oc4cc(O)cc(O)c4C3=O)c(Cl)nc2c1`: the MIC in the test with Bacillus subtilis came to 156 µg/mL (≈ 424 µM); in the test on Staphylococcus aureus, 2500 µg/mL (≈ 6800 µM); in test [6], 78 µg/mL (≈ 212 µM); in the test with Fusarium oxysporum, 313 µg/mL (≈ 851 µM); in the test on Candida albicans it was 156 µg/mL (≈ 424 µM).
`CCOc1c(Br)cc(/C=C2\Oc3cc(OC)cc(OC)c3C2=O)cc1OC` returned an IC50 in the test on Plasmodium falciparum [2] of 7.27 µM.
With `COc1ccc(/C=C2\Oc3c(ccc(OC)c3OC)C2=O)cc1O`, the Activity in test [7] was found to be 8.9%.
With `COc1c(O)ccc2c1O/C(=C\c1ccc(O)c(O)c1)C2=O`, the Activity in [7] stood at 84.2%.
For `CC(=O)N1/C(=C\c2ccc(-c3ccsc3)cc2)C(=O)c2ccccc21`, the MIC99 in test [3] was 0.6 µM (≈ 0.207 µg/mL).
As for `O=C1/C(=C/c2ccncc2)Oc2cc(OCc3c(Cl)cccc3Cl)ccc21`, on Tubulin, 66 µM corresponded to half-maximal inhibition (IC50).
As for `Cc1ccc(/C=C2\Oc3c(ccc4c3CCC(C)(C)O4)C2=O)o1`, in test [5], half-maximal inhibition (IC50) was put at 11.9 µM.
`CC(C)=CCc1c(O)ccc2c1O/C(=C\c1ccc(O)cc1)C2=O` registered an IC50 against Maltase-glucoamylase of 73.8 µM.
For `COc1cc(/C=C2\Oc3c(ccc(O)c3OC)C2=O)ccc1O`, the Activity in test [7] is 47.4%.
